Experiments:
[1] = system: Na+/K+-ATPase/Src complex; experiment: Effect of ouabain on binding of GST-Src constructs to Na+/K+-ATPase; conditions: 10 μM ouabain, 15 min
Method: FIG. 7C. A representative Western blot of four separate experiments showing that ouabain induced the release of the kinase domain from the Na+/K+-ATPase. […] Complexes were then pulled down on glutathione beads, washed three times, resuspended in 500 μl PBS, and exposed to 10 μM ouabain for 15 min. The beads were then washed for three more times using PBS, and the pulled down Na+/K+-ATPase was analyzed by Western blot using anti-α1 antibody
Because the inventors have shown that multiple domains are involved in Src interaction with the Na+/K+ATPase, the above findings led us to test if ouabain dissociates only a single (kinase) domain from the interacting Na+/K+-ATPase. […] Afterward, the complexes were exposed to 10 μM ouabain.

LLC-PK1 cells = experiment: Recruitment of Src to the Na+/K+-ATPase signaling complex (co-immunoprecipitation); assay type: cell-based, pig; conditions: 1 μM ouabain 5 min, control cells
Method: FIG. 9C Inhibition of Src blocks ouabain-induced recruitment of Src to the Na+/K+-ATPase signaling complex. LLC-PK1 cells were pretreated with 1 μM PP2 or PP3 for 15 min and then exposed to 1 μM ouabain for 5 min. Cell lysates were immunoprecipitated and analyzed. Values are mean±SE of at least four independent experiments. * p<0.05.
(§1) Cells were lysed in RIPA buffer containing 1% Nonidet P40, 0.25% sodium deoxycholate, 150 mM NaCl, 1 mM EDTA, 1 mM phenylmethylsulfonyl fluoride, 1 mM sodium orthovanadate, 1 mM NaF, 10 μg/ml aprotinin, 10 μg/mlleupeptin, and 50 mM Tris-HCl (pH 7.4). Cell lysates were cleared by centrifugation at 16,000×g for […], and the supernatants (1 mg) were either immunoprecipitated with anti-α1 antibody or incubated with different GST-fusion proteins. The complexes were then pulled down by either protein G agarose or glutathione beads (Ma et al., 2000; Haas et al., 2002) and analyzed by Western blot.

SYF and SYF+Src cells = experiment: Protein tyrosine phosphorylation in SYF and SYF+Src cells; assay type: cell-based, mouse; conditions: 100 μM ouabain 5 min
Method: FIG. 9B. Both SYF and SYF+Src cells were treated with 100 μM ouabain for 5 min and analyzed as in A. Representative Western blots of three experiments are shown in both A and B.
as §1

Na+/K+-ATPase = Na+/K+-ATPase activity assay in cell lysates; assay type: biochemical, pig; conditions: 10 μM ouabain, PY-17 and P-11 cells
Method: Na+/K+-ATPase enzymatic activity was determined Briefly, cells were collected from the cultures in Tris-EGTA buffer (pH 7.2) and briefly sonicated. The cell lysates were then treated with alamethicin at a concentration of 0.1 mg/mg of protein for 30 min at room temperature. ATPase activity was measured by the determination of the initial release of 32P from [,y-32P]ATP, and the reaction was carried out in a reaction mixture (1 ml) containing 100 mM NaCl, 25 mM KCl, 3 mM MgCl2, 1 mM EGTA, 2 mM ATP, 5 mM NaN3, and 50 mM Tris-HCl (pH 7.4). Na+/K+-ATPase activity was calculated as the difference between the activities measured in the absence of ouabain and in the presence of 1 mM ouabain. To determine the ouabain concentration curve, the alamethicin-treated cell lysates were preincubated with different concentrations of ouabain for 15 min before ATP was added to start the reaction.

[2] = biological target: T1, Na+/K+-ATPase/Src complex (Sus scrofa, UniProt P05024); experiment: Src pY418 phosphorylation of the Na+/K+-ATPase/Src complex (Western blot); assay type: biochemical
T1 construct: Na+/K+-ATPase was purified from pig kidney outer medulla using the Jorgensen method; tissue Upstate Biotechnology (Src only); host or cells: pig kidney outer medulla (Na+/K+-ATPase)
Method: The Src kinase activity was assayed using a commercial kit (Haas et al., 2000). To determine how Na+/K+-ATPase affects Src kinase activity, the purified Src (4.5 U) was incubated with 5 μg of the purified Na+/K+-ATPase in the Src assay buffer for 30 min at room temperature. Afterward, both control Src or the Na+/K+-ATPase-bound Src were exposed to 10 μM ouabain and Src kinase activity was determined. In other experiments, the Src pY418 was measured by anti-pY418 antibody to indicate Src activation (Ma et al., 2000). To do so, the purified Src (4.5 U) was incubated with different amounts of the purified Na+/K+-ATPase or GST-Na+/K+ATPase constructs in phosphate-buffered saline (PBS) for 30 min at 37° C. Afterward, 2 mM ATP/Mg2+ was added. The reaction continued for 5 min at 37° C. and was stopped by addition of SDS sample buffer.
The purified Na+/K+-ATPase was solubilized in 1% Triton X-100 PBS and centrifuged at 100,000×g for 30 min. The supernatant was collected for the binding assay. GST-fusion proteins (5 μg) were conjugated on glutathione beads and incubated with the solubilized Na+/K+-ATPase in 500 μl PBS in the presence of 0.5% Triton X-100 at room temperature for 30 min. The beads were washed with the same buffer for four times. The bound Na+/K+ATPase was resolved on 10% SDS-PAGE and detected by Western blot. Reciprocal binding assay using GST-Na+/K+-ATPase constructs (5 μg) and purified Src lacking of first 85 amino acids (200 ng) or His-tagged Src constructs (100 ng) was done similarly. To test if native Na+/K+-ATPase binds Src, the above experiments were repeated in the absence of Triton X-100. To make the Na+/K+-ATPase/Src complex, 2-5 μg of the purified Na+/K+ATPase was incubated with 4.5 U of Src (˜10 ng) in PBS in the absence of Triton X-100 at room temperature for 30 min. The complex was either used for the experiments directly as indicated or collected by centrifugation at 100,000×g for 30 min.

[3] = 10 μM ouabain 15 min before centrifugation

## C[C@@H]1O[C@@H](O[C@H]2C[C@@H](O)[C@]3(CO)[C@H]4[C@H](O)C[C@]5(C)[C@@H](C6=CC(=O)OC6)CC[C@]5(O)[C@@H]4CC[C@]3(O)C2)[C@H](O)[C@H](O)[C@H]1O [ouabain]
[1]
  binding of Src kinase domain to the Na+/K+-ATPase: dissociated the kinase domain
  binding of full-length Src or SH3SH2 domain to the Na+/K+-ATPase: no effect on the binding of either full-length Src or the SH3SH2 domain
LLC-PK1 cells
  Src coprecipitated with α1: increased coprecipitated Src
SYF and SYF+Src cells; SYF cells
  effects of ouabain on protein tyrosine phosphorylation: completely abolished
SYF and SYF+Src cells; SYF+Src cells
  effects of ouabain on protein tyrosine phosphorylation: restored
Na+/K+-ATPase
  inhibition of the Na+/K+-ATPase in cell lysates: complete inhibition
[2]; [3]
  Src pY418 of cosedimented complex: increased the amount of Src pY418
  total Src cosedimented with the Na+/K+-ATPase: no effect on total Src cosedimented
[2]; different concentrations of ouabain, 2 mM ATP/Mg2+, 5 min
  Src pY418 of Na+/K+-ATPase/Src complex: significantly increased the pY418 in a dose-dependent manner
[2]; ouabain in the presence of vanadate
  Src pY418 of Na+/K+-ATPase/Src complex: still able to stimulate pY418 of Src
